Reference: patent US20240041042A1, “1-(PYRIDYL)-5-AZINYLPYRAZOLE DERIVATIVES, AND THEIR USE FOR CONTROL OF UNDESIRED PLANT GROWTH” (Bayer Aktiengesellschaft, priority 2020, published 2024)
Read-outs that look alike come from different tables or passages of the source.

What was measured:
Assay type in all cases: in vivo
[1] = system: Verconica persica (VERPE); assay: Pre-emergence herbicidal action against VERPE
Method in brief: (§1)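 Application rates ran to 320 g/ha or lower, with several dosages tested on the same weeds. The compound, as wettable powder or emulsion concentrate, is sprayed pre-emergence onto soil over sown seeds; greenhouse growth follows, and effect is rated visually after roughly 3 weeks.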

Viola tricolor (VIOTR) [2] = assay: Pre-emergence herbicidal action against VIOTR
Method in brief: as §1

Brassica napus (BRSNW) [3] = conditions: crop plant compatibility, in comparison to untreated controls
Method in brief: (§2)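 Crop injury rated visually in percent against untreated plants roughly 3 weeks after treatment (0% no effect, 100% plants dead). Compounds, as WP or EC with 0.5% additive in 600 l/ha water, were applied to the covering soil right after sowing; greenhouse growth. Suffixes a, b, c denote different dosages.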

Glycine max (GLXMA) [4] = conditions: pre-emergence, 80 g/ha, crop plant compatibility, in comparison to untreated controls
Method in brief: as §2

Oryza sativa (ORYSA) [5] = conditions: pre-emergence, crop plant compatibility, in comparison to untreated controls
Method in brief: as §2

[6] = system: Triticum aestivum (TRZAS); conditions: pre-emergence, crop plant compatibility, in comparison to untreated controls
Method in brief: as §2

Zea mays (ZEAMX) [7] = conditions: pre-emergence, crop plant compatibility, in comparison to untreated controls
Method in brief: as §2

[8] = system: Verconica persica (VERPE); assay: Post-emergence herbicidal action against VERPE
Method in brief: (§3)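 Greenhouse plants sprayed at the one-leaf stage, 2–3 weeks after sowing, with WP or EC formulations plus 0.5% additive at 600 l/ha water. Activity rated visually after about 3 weeks versus untreated controls (100% = dead, 0% = like control), at 320 g/ha or lower.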

Viola tricolor (VIOTR) [9] = assay: Post-emergence herbicidal action against VIOTR
Method in brief: as §3

Oryza sativa (ORYSA) [10] = conditions: crop plant compatibility
Method in brief: (§4)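 Foliar application at the one-leaf stage: WP/EC formulation, 0.5% additive, 600 l/ha water. Greenhouse-grown in sandy loam. Endpoint is visual % injury relative to untreated controls at about 3 weeks.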

[11] = system: Triticum aestivum (TRZAS); conditions: crop plant compatibility, effect vs untreated controls
Method in brief: as §4

Zea mays (ZEAMX) [12] = conditions: for Post-emergence action against ZEAMX in %: crop plant compatibility, effect vs untreated controls; for Post-emergence action against ZEAMX in % (crop plant compatibility): 20 g/ha, effect in comparison to untreated controls
Method in brief: as §4

Glycine max (GLXMA) [13] = assay: Post-emergence crop plant compatibility, GLXMA; conditions: post-emergence, 80 g/ha, effect in comparison to untreated controls
Method in brief: as §4

[14] = system: Alopecurus myosuroides (ALOMY); assay: Post-emergence herbicidal action against ALOMY; conditions: visual rating about 3 weeks after treatment vs untreated controls (100% = plants have died, 0% = like control plants)
Method in brief: as §3

Brassica napus (BRSNW) [15] = assay: Post-emergence crop plant compatibility, BRSNW; conditions: effect in comparison to untreated controls
Procedure: Seeds of monocotyledonous and dicotyledonous weeds and crop plants are placed in sandy loam in plastic or organic planting pots, covered with soil and cultivated in a greenhouse under controlled growth conditions. 2 to 3 weeks after sowing, the test plants are treated at the one-leaf stage. The compounds of the invention, formulated in the form of wettable powders (WP) or as emulsion concentrates (EC), are then sprayed onto the green parts of the plants as aqueous suspension or emulsion with addition of 0.5% additive at a water application rate of 600 l/ha (converted). After the test plants have been kept in the greenhouse under optimum growth conditions for about 3 weeks, the activity of the preparations is rated visually in comparison to untreated controls. For example, 100% activity=the plants have died, 0% activity=like control plants.
The observed effects on selected crop plants are reported here in comparison to the untreated controls (values in %). The appendices “a”, “b” and “c” give differentiation by dosage used with otherwise the same crop plants tested.

[16] = system: Abutilon theophrasti (ABUTH); assay: Post-emergence herbicidal action against ABUTH; conditions: 320 g/ha, visual rating about 3 weeks after treatment vs untreated controls (100% = plants have died, 0% = like control plants)
Method in brief: as §3

Avena fatua (AVEFA) [17] = assay: Post-emergence herbicidal action against AVEFA; conditions: visual rating about 3 weeks after treatment
Method in brief: as §3

[18] = system: Digitaria sanguinalis (DIGSA); assay: Post-emergence herbicidal action against DIGSA; conditions: 320 g/ha, visual rating about 3 weeks after treatment
Method in brief: as §3

[19] = system: Echinochloa crus-galli (ECHCG); assay: Post-emergence herbicidal action against ECHCG
Method in brief: as §3

Lolium rigidum (LOLRI) [20] = assay: Post-emergence herbicidal action against LOLRI
Method in brief: as §3

[21] = system: Matricaria inodora (MATIN); assay: Post-emergence herbicidal action against MATIN; conditions: dosage 320 g/ha
Method in brief: as §3

[22] = system: Pharbitis purpurea (PHBPU); assay: Post-emergence herbicidal action against PHBPU
Method in brief: as §3

[23] = system: Polygonum convolvulus (POLCO); assay: Post-emergence herbicidal action against POLCO; conditions: dosage 320 g/ha
Method in brief: as §3

Setaria viridis (SETVI) [24] = assay: Post-emergence herbicidal action against SETVI
Method in brief: as §3

[25] = system: Alopecurus myosuroides (ALOMY); assay: Pre-emergence herbicidal action against ALOMY; conditions: scored visually after about 3 weeks, 100% = plants have died
Method in brief: as §1

[26] = system: Amaranthus retroflexus (AMARE); assay: Pre-emergence herbicidal action against AMARE; conditions: visual scoring after about 3 weeks vs untreated controls
Method in brief: as §1

Avena fatua (AVEFA) [27] = assay: Pre-emergence herbicidal action against AVEFA; conditions: 320 g/ha, visual scoring after about 3 weeks vs untreated controls
Method in brief: as §1

[28] = system: Echinochloa crus-galli (ECHCG); assay: Pre-emergence herbicidal action against ECHCG; conditions: dosage 320 g/ha
Method in brief: as §1

Lolium rigidum (LOLRI) [29] = assay: Pre-emergence herbicidal action against LOLRI; conditions: dosage 320 g/ha
Method in brief: as §1

[30] = system: Polygonum convolvulus (POLCO); assay: Pre-emergence herbicidal action against POLCO
Method in brief: as §1

Setaria viridis (SETVI) [31] = assay: Pre-emergence herbicidal action against SETVI; conditions: dosage 320 g/ha
Method in brief: as §1

[32] = 80 g/ha, effect in comparison to untreated controls
[33] = 320 g/ha, effect in comparison to untreated controls
[34] = 20 g/ha, effect vs untreated controls

| Structure (SMILES) | Pre-emergence action against VERPE in % ([1]; dosage 320 g/ha) | Pre-emergence action against VIOTR in % (Viola tricolor (VIOTR) [2]; 320 g/ha, Viola tricolor) | Pre-emergence action against BRSNW in % (Brassica napus (BRSNW) [3]; 80 g/ha) | Pre-emergence action against ORYSA in % (Oryza sativa (ORYSA) [5]; 80 g/ha) | Pre-emergence action against ORYSA in % (Oryza sativa (ORYSA) [5]; 320 g/ha) | Pre-emergence action against TRZAS in % ([6]; 80 g/ha) | Pre-emergence action against TRZAS in % ([6]; 320 g/ha) | Pre-emergence action against ZEAMX in % (Zea mays (ZEAMX) [7]; 80 g/ha) | Post-emergence action against VERPE in % ([8]; 320 g/ha, VERPE) | Post-emergence action against VIOTR in % (Viola tricolor (VIOTR) [9]; 320 g/ha) | Post-emergence action against ORYSA in % (Oryza sativa (ORYSA) [10]; [32]) | Post-emergence action against ORYSA in % (Oryza sativa (ORYSA) [10]; [33]) | Post-emergence action against TRZAS in % ([11]; 80 g/ha) | Post-emergence action against TRZAS in % ([11]; 320 g/ha) | Post-emergence action against ZEAMX in % (Zea mays (ZEAMX) [12]; 80 g/ha) | Post-emergence action against ZEAMX in % (Zea mays (ZEAMX) [12]; 320 g/ha) | Post-emergence action against ORYSA in % (Oryza sativa (ORYSA) [10]; [34]) | Post-emergence action against TRZAS in % ([11]; 20 g/ha) | Post-emergence action against ZEAMX in % (crop plant compatibility) (Zea mays (ZEAMX) [12]) | Post-emergence action against BRSNW in % (Brassica napus (BRSNW) [15]; 20 g/ha) | other results |
| --- | --- | --- | --- | --- | --- | --- | --- | --- | --- | --- | --- | --- | --- | --- | --- | --- | --- | --- | --- | --- | --- |
| CCOC(=O)COc1nn(-c2ccc(Br)c(C)n2)c(-c2cncc(F)c2)c1Br [Example I-161] | 80% | 90% | 10% | 0% | 0% | 0% | 20% | 20% | 80% | 80% | 0% | 0% | 0% | 10% | 10% | 10% |  |  |  |  | Pre-emergence action against BRSNW in % (Brassica napus (BRSNW) [3]; 320 g/ha): 10%; Pre-emergence action against GLXMA in % (Glycine max (GLXMA) [4]): 0%; Pre-emergence action against ZEAMX in % (Zea mays (ZEAMX) [7]; 320 g/ha): 20%; Post-emergence action against GLXMA in % (Glycine max (GLXMA) [13]): 0% |
| COC(=O)C1CCCN1C(=O)COc1nn(-c2ccccn2)c(-c2ccc(F)nc2)c1Br (centres unmarked) [Example I-110] |  |  | 20% | 10% |  |  |  | 10% |  |  | 10% |  |  |  | 10% |  | 0% | 0% | 10% | 10% | Pre-emergence action against VERPE in % ([1]; dosage 80 g/ha): 100%; Post-emergence action against ALOMY in % ([14]; 80 g/ha): 80%; Post-emergence action against BRSNW in % (Brassica napus (BRSNW) [15]; 80 g/ha): 20% |
| O=C(O)C1CCN(C(=O)COc2nn(-c3ccccn3)c(-c3ccc(F)nc3)c2Br)CC1 [Example I-62] |  |  | 0% | 0% | 0% | 0% | 0% | 0% |  |  | 0% | 0% | 0% | 0% |  | 20% |  |  |  |  | Post-emergence action against BRSNW in % (Brassica napus (BRSNW) [15]; 80 g/ha): 20% |
| O=C(COc1nn(-c2ncccc2F)c(-c2ccc(F)nc2)c1C1CC1)OCC1CCOC1 (centres unmarked) [Example I-289] |  |  |  |  |  |  |  |  | 80% | 80% | 10% |  |  |  | 10% |  | 0% | 20% | 0% | 20% | Post-emergence action against ABUTH in % [16]: 80%; Post-emergence action against ALOMY in % ([14]; 80 g/ha): 80%; Post-emergence action against ALOMY in % ([14]; 320 g/ha): 90%; Post-emergence action against AVEFA in % (Avena fatua (AVEFA) [17]; 80 g/ha): 80%; Post-emergence action against AVEFA in % (Avena fatua (AVEFA) [17]; 320 g/ha): 90%; Post-emergence action against DIGSA in % [18]: 80%; Post-emergence action against ECHCG in % ([19]; dosage 80 g/ha): 80%; Post-emergence action against ECHCG in % ([19]; dosage 320 g/ha): 80%; Post-emergence action against LOLRI in % (Lolium rigidum (LOLRI) [20]; dosage 80 g/ha): 80%; Post-emergence action against LOLRI in % (Lolium rigidum (LOLRI) [20]; dosage 320 g/ha): 90%; Post-emergence action against MATIN in % [21]: 90%; Post-emergence action against PHBPU in % ([22]; dosage 80 g/ha): 80%; Post-emergence action against PHBPU in % ([22]; dosage 320 g/ha): 80%; Post-emergence action against POLCO in % [23]: 80%; Post-emergence action against SETVI in % (Setaria viridis (SETVI) [24]; dosage 80 g/ha): 90%; Post-emergence action against SETVI in % (Setaria viridis (SETVI) [24]; dosage 320 g/ha): 90%; Post-emergence action against VERPE in % ([8]; dosage 80 g/ha): 80%; Post-emergence action against VIOTR in % (Viola tricolor (VIOTR) [9]; 80 g/ha): 80% |
| CCOC(=O)CCNC(=O)COc1nn(-c2ncccc2F)c(-c2ccc(OC)nc2)c1Br [Example I-47] | 90% | 100% |  |  |  |  |  | 20% |  |  | 20% |  |  |  | 10% |  | 20% | 10% | 10% | 10% | Pre-emergence action against ALOMY ([25]; 80 g/ha): 90%; Pre-emergence action against ALOMY ([25]; 320 g/ha): 90%; Pre-emergence action against AMARE in % ([26]; 80 g/ha): 100%; Pre-emergence action against AMARE in % ([26]; 320 g/ha): 100%; Pre-emergence action against AVEFA in % (Avena fatua (AVEFA) [27]): 90%; Pre-emergence action against ECHCG in % [28]: 90%; Pre-emergence action against LOLRI in % (Lolium rigidum (LOLRI) [29]): 100%; Pre-emergence action against POLCO in % ([30]; dosage 80 g/ha): 80%; Pre-emergence action against POLCO in % ([30]; dosage 320 g/ha): 90%; Pre-emergence action against SETVI in % (Setaria viridis (SETVI) [31]): 100%; Pre-emergence action against VIOTR in % (Viola tricolor (VIOTR) [2]; dosage 80 g/ha): 100%; Post-emergence action against ECHCG in % ([19]; dosage 80 g/ha): 80%; Post-emergence action against SETVI in % (Setaria viridis (SETVI) [24]; dosage 80 g/ha): 90% |
